Values after ≈ are worked out from the molar mass of the structure shown.
Experiments:
[1] = biological target: T1, Transient receptor potential cation channel subfamily V member 1 (Homo sapiens, UniProt Q8NER1); assay: Inhibition of calcium influx evoked by capsaicin in human TRPV1 expressing cells by fluorescence assay; format: functional
[2] = biological target: T1, Transient receptor potential cation channel subfamily V member 1; assay: Inhibition of low pH activation of human TRPV1; format: functional
[3] = biological target: T2, Transient receptor potential cation channel subfamily V member 1 (Rattus norvegicus, UniProt O35433); assay: Inhibition of low pH activation of rat TRPV1; format: functional
[4] = biological target: T2, Transient receptor potential cation channel subfamily V member 1; assay: Inhibition of calcium influx evoked by capsaicin in rat TRPV1 expressing cells by fluorescence assay; format: functional, cell-based
[5] = Aqueous solubility at pH 6.8 and 25 degC; format: physicochemical; settings: aqueous medium

T1 sequence (Q8NER1 whole entry): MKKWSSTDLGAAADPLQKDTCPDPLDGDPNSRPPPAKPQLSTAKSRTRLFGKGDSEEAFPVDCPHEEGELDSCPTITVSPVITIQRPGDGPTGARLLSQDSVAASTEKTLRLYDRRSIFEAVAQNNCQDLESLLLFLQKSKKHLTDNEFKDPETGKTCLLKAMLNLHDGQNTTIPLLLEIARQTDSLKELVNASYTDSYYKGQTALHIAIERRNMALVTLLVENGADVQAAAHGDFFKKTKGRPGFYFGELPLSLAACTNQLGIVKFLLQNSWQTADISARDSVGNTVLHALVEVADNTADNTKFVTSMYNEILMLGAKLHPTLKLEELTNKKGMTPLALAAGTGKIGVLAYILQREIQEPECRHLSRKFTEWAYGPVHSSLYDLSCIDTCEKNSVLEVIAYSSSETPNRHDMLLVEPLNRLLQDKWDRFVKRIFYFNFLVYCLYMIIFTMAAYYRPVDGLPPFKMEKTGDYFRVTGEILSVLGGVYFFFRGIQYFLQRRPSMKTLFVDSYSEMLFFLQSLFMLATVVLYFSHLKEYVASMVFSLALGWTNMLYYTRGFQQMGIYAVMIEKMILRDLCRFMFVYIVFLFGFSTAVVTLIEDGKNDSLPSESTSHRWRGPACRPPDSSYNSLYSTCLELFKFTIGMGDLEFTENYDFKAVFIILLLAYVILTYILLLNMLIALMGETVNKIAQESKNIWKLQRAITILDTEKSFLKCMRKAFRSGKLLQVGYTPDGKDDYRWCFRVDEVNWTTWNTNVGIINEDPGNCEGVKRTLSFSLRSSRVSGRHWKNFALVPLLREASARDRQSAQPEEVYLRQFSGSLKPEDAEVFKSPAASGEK
T2 sequence (O35433 whole entry): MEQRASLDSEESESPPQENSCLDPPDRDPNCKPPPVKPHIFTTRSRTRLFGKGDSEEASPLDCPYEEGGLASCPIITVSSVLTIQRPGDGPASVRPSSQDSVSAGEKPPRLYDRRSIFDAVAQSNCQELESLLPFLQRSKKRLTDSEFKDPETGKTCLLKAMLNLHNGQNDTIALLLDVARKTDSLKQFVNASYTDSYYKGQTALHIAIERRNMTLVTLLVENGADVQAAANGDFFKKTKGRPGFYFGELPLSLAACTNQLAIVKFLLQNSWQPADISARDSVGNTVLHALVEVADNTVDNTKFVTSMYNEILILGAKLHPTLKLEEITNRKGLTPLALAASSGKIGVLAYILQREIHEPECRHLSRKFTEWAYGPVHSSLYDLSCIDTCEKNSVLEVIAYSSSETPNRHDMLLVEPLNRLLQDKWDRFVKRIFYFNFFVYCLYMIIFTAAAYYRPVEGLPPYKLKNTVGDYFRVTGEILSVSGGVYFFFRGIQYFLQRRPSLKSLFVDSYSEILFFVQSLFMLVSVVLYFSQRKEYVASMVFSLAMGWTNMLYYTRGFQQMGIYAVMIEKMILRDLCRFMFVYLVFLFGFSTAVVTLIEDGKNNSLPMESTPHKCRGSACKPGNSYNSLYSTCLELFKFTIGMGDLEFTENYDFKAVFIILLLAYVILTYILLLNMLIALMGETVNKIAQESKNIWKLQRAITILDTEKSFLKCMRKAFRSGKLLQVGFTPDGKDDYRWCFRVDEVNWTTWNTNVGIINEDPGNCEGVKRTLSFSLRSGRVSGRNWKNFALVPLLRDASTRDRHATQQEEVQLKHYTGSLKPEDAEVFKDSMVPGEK

| IC50 [1] [nM] | SMILES | further results |
| --- | --- | --- |
| 100 | CC(C)(C)c1nc2[nH]c(=S)[nH]c(=O)c2cc1-c1ccccc1 | IC50 [2]: 49 nM; IC50 [3]: 25 nM; IC50 [4]: 90 nM |
| 31 | Cc1nc(O)c2cc(-c3ccc4c(c3)OCO4)c(C(C)C)cc2n1 |  |
| 487 | Cc1nc2cc(C(C)C)c(-c3ccc(Cl)c(OCCN(C)C)c3)cc2c(=O)[nH]1 |  |
| 100 | COc1cc(Cl)cc(-c2cc3c(O)nc(C)nc3cc2C(C)C)c1 |  |
| 13 | Cc1nc2cc(C(C)C)c(-c3ccc(Cl)cc3)cc2c(=O)[nH]1 | solubility [5]: 4 µg/mL (≈ 12.8 µM) |
| 82 | CCCCOc1cc(-c2cc3c(=O)[nH]c(C)nc3cc2C(C)C)ccc1Cl |  |
